Test results as given in ChEMBL document CHEMBL5108031, “Novel N-(4-thiocyanatophenyl)-1H-1,2,3-triazole-4-carboxamides exhibit selective cytotoxic activity at nanomolar doses towards human leukemic T-cells” (Eur J Med Chem, 2022).
Active and inactive are the calls of the source. The calls are words filed in the database; no cut-off is given here.

Experiments:
WM793 = test: Antiproliferative activity against human WM793 cells incubated for 72 hrs and measured by MTT assay; type: functional
CCRF-CEM = test: Antiproliferative activity against human CCRF-CEM cells assessed as relative cell growth at 10 uM incubated for 48 hrs and measured by SRB assay; type: functional; conditions: read-out: Activity
NCI-H522 = test: Antiproliferative activity against human NCI-H522 cells incubated for 48 hrs and measured by SRB assay; type: functional
NCI-H460 [1] = test: Antiproliferative activity against human NCI-H460 cells incubated for 48 hrs and measured by SRB assay; type: functional, cell-based; conditions: NCI-H460, 48 h
MDA-MB-468 = test: Antiproliferative activity against human MDA-MB-468 cells assessed as relative cell growth at 10 uM incubated for 48 hrs and measured by SRB assay; type: functional; conditions: read-out: Activity
MCF7 = test: Antiproliferative activity against human MCF7 cells incubated for 72 hrs and measured by MTT assay; type: functional
Jurkat [2] = test: Induction of apoptosis in human Jurkat cells assessed as decrease in mitochondrial membrane potential at 0.5 uM measured after 24 hrs by Rhodamine 123 fluorescence based assay; type: functional, cell-based
Jurkat [3] = test: Induction of DNA damage in human Jurkat cells assessed as olive tail moment at 0.5 uM measured after 24 hrs by comet assay; type: functional
HOP-92 = test: Antiproliferative activity against human HOP-92 cells incubated for 48 hrs and measured by SRB assay; type: functional
Jurkat [4] = test: Induction of apoptosis in human Jurkat cells assessed as fragmented DNA and nuclei at 0.5 uM measured after 24 hrs by Hoechst 33342/propidium iodide staining based fluorescence microscopic analysis; type: functional, cell-based
LOX IMVI [5] = test: Antiproliferative activity against human LOX IMVI cells incubated for 48 hrs and measured by SRB assay; type: functional
UO-31 [6] = test: Antiproliferative activity against human UO-31 cells assessed as relative cell growth at 10 uM incubated for 48 hrs and measured by SRB assay; type: functional; conditions: read-out: Activity
BALB/3T3 = test: Antiproliferative activity against mouse BALB/3T3 cells incubated for 72 hrs and measured by MTT assay; type: functional
LOX IMVI [7] = test: Antiproliferative activity against human LOX IMVI cells assessed as relative cell growth at 10 uM incubated for 48 hrs and measured by SRB assay; type: functional; conditions: read-out: Activity
HCT-116 [8] = test: Antiproliferative activity against human HCT-116 cells incubated for 72 hrs and measured by MTT assay; type: functional
HCT-116 [9] = test: Antiproliferative activity against p53-deficient human HCT-116 cells incubated for 72 hrs and measured by MTT assay; type: functional
Jurkat [10] = test: Induction of apoptosis in human Jurkat cells assessed as cell debris at 0.5 uM measured after 24 hrs by Hoechst 33342/propidium iodide staining based fluorescence microscopic analysis; type: functional
TK-10 = test: Antiproliferative activity against human TK-10 cells incubated for 48 hrs and measured by SRB assay; type: functional
A498 = test: Antiproliferative activity against human A498 cells assessed as relative cell growth at 10 uM incubated for 48 hrs and measured by SRB assay; type: functional; conditions: read-out: Activity
MDA-MB-231 = test: Antiproliferative activity against human MDA-MB-231 cells incubated for 72 hrs and measured by MTT assay; type: functional
COLO 205 = test: Antiproliferative activity against human COLO 205 cells assessed as relative cell growth at 10 uM incubated for 48 hrs and measured by SRB assay; type: functional; conditions: read-out: Activity
Malme-3M = test: Antiproliferative activity against human Malme-3M cells assessed as relative cell growth at 10 uM incubated for 48 hrs and measured by SRB assay; type: functional; conditions: read-out: Activity
CAKI-1 = test: Antiproliferative activity against human CAKI-1 cells assessed as relative cell growth at 10 uM incubated for 48 hrs and measured by SRB assay; type: functional; conditions: read-out: Activity
MOLT-4 = test: Antiproliferative activity against human MOLT-4 cells assessed as relative cell growth at 10 uM incubated for 48 hrs and measured by SRB assay; type: functional; conditions: read-out: Activity
THP-1 = test: Antiproliferative activity against human THP-1 cells incubated for 72 hrs and measured by MTT assay; type: functional
HCC 2998 = test: Antiproliferative activity against human HCC 2998 cells assessed as relative cell growth at 10 uM incubated for 48 hrs and measured by SRB assay; type: functional; conditions: read-out: Activity
SF-539 = test: Antiproliferative activity against human SF-539 cells assessed as relative cell growth at 10 uM incubated for 48 hrs and measured by SRB assay; type: functional; conditions: read-out: Activity
RXF 393 = test: Antiproliferative activity against human RXF 393 cells incubated for 48 hrs and measured by SRB assay; type: functional
SR [11] = test: Antiproliferative activity against human SR cells incubated for 48 hrs and measured by SRB assay; type: functional
Jurkat [12] = test: Induction of DNA damage in human Jurkat cells assessed as tail DNA at 0.5 uM measured after 24 hrs by comet assay; type: functional
K562 [13] = test: Antiproliferative activity against human K562 cells assessed as relative cell growth at 10 uM incubated for 48 hrs and measured by SRB assay; type: functional; conditions: read-out: Activity
Jurkat [14] = test: Induction of apoptosis in human Jurkat cells assessed as appearance of apoptotic bodies at 0.5 uM measured after 24 hrs by Hoechst 33342/propidium iodide staining based fluorescence microscopic analysis; type: functional, cell-based
Jurkat [15] = test: Induction of apoptosis in human Jurkat cells assessed as condensed chromatin at 0.5 uM measured after 24 hrs by Hoechst 33342/propidium iodide staining based fluorescence microscopic analysis; type: functional, cell-based
DNA = test: Binding affinity to DNA (unknown origin) assessed as DNA intercalation at 1 to 100 uM by measuring amount of methyl green dye replaced from DNA-methyl green complex; type: nucleic-acid assay; conditions: Homo sapiens; dose 1-100 µM
HL-60(TB) [16] = test: Antiproliferative activity against human HL-60(TB) cells assessed as relative cell growth at 10 uM incubated for 48 hrs and measured by SRB assay; type: functional; conditions: read-out: Activity
HeLa = test: Antiproliferative activity against human HeLa cells incubated for 72 hrs and measured by MTT assay; type: functional
HEK293 = test: Antiproliferative activity against human HEK293 cells incubated for 72 hrs and measured by MTT assay; type: functional
NCI-H460 [17] = test: Antiproliferative activity against human NCI-H460 cells assessed as relative cell growth at 10 uM incubated for 48 hrs and measured by SRB assay; type: functional; conditions: read-out: Activity
SF-295 [18] = test: Antiproliferative activity against human SF-295 cells assessed as relative cell growth at 10 uM incubated for 48 hrs and measured by SRB assay; type: functional; conditions: read-out: Activity
UO-31 [19] = test: Antiproliferative activity against human UO-31 cells incubated for 48 hrs and measured by SRB assay; type: functional
K562 [20] = test: Antiproliferative activity against human K562 cells incubated for 72 hrs and measured by MTT assay; type: functional
SR [21] = test: Antiproliferative activity against human SR cells assessed as relative cell growth at 10 uM incubated for 48 hrs and measured by SRB assay; type: functional; conditions: read-out: Activity
HaCaT = test: Antiproliferative activity against human HaCaT cells incubated for 72 hrs and measured by MTT assay; type: functional
Jurkat [22] = test: Antiproliferative activity against human Jurkat cells incubated for 72 hrs and measured by MTT assay; type: functional
SF-295 [23] = test: Antiproliferative activity against human SF-295 cells incubated for 48 hrs and measured by SRB assay; type: functional
HL-60(TB) [24] = test: Antiproliferative activity against human HL-60(TB) cells incubated for 48 hrs and measured by SRB assay; type: functional
Jurkat [25] = test: Induction of DNA damage in human Jurkat cells assessed as DNA fragmentation at 0.5 uM measured by Diphenylamine assay; type: functional
KB 3-1 = test: Antiproliferative activity against human KB 3-1 cells incubated for 72 hrs and measured by MTT assay; type: functional
[26] = molecular target: Heat shock protein HSP 90-alpha (Homo sapiens, UniProt P07900); test: Inhibition of Hsp90alpha (unknown origin)
SK-OV-3 = test: Antiproliferative activity against human SK-OV-3 cells incubated for 72 hrs and measured by MTT assay; type: functional
Jurkat [27] = test: Induction of apoptosis in human Jurkat cells assessed as cellular membrane blebbing at 0.5 uM measured after 24 hrs by Hoechst 33342/propidium iodide staining based fluorescence microscopic analysis; type: functional, cell-based
A549 = test: Antiproliferative activity against human A549 cells incubated for 72 hrs and measured by MTT assay; type: functional
[28] = read-out: LC50 (the source's name)

Cc1c(C(=O)Nc2ccc(SC#N)cc2)nnn1-c1ccc(C(C)C)cc1
GI50 (WM793): > 100 µM | growth at 10 µM (CCRF-CEM): -13.3% | GI50 (NCI-H522): 1.97 µM | TGI (NCI-H522): 5.81 µM | CC50 (NCI-H522; [28]): > 100 µM | IC50 (NCI-H460 [1]): 0.028 µM | growth at 10 µM (MDA-MB-468): 80.1% | GI50 (MCF7): > 100 µM | Activity (Jurkat [2]): Active | Activity (Jurkat [3]): 1.3 | GI50 (HOP-92): 2.85 µM | TGI (HOP-92): 10.2 µM | CC50 (HOP-92; [28]): 62 µM | Activity (Jurkat [4]): Active | GI50 (LOX IMVI [5]): 0.15 µM | TGI (LOX IMVI [5]): 1.12 µM | CC50 (LOX IMVI [5]; [28]): 4.48 µM | growth at 10 µM (UO-31 [6]): -17.1% | GI50 (BALB/3T3): > 100 µM | growth at 10 µM (LOX IMVI [7]): -53.1% | GI50 (HCT-116 [8]): > 100 µM | GI50 (HCT-116 [9]): 8.4 µM | Activity (Jurkat [10]): Active | GI50 (TK-10): 3.21 µM | TGI (TK-10): 9.94 µM | CC50 (TK-10; [28]): > 100 µM | growth at 10 µM (A498): 93.6% | GI50 (MDA-MB-231): > 100 µM | growth at 10 µM (COLO 205): 89.4% | growth at 10 µM (Malme-3M): 95.1% | growth at 10 µM (CAKI-1): -53.2% | growth at 10 µM (MOLT-4): -17.6% | GI50 (THP-1): > 100 µM | growth at 10 µM (HCC 2998): 82.6% | growth at 10 µM (SF-539): 2.96% | GI50 (RXF 393): 4.27 µM | TGI (RXF 393): 20.4 µM | CC50 (RXF 393; [28]): 69.5 µM | GI50 (SR [11]): 1.77 µM | TGI (SR [11]): 5.51 µM | CC50 (SR [11]; [28]): > 100 µM | Activity (Jurkat [12]): 8.5% | growth at 10 µM (K562 [13]): 10.3% | Activity (Jurkat [14]): Active | Activity (Jurkat [15]): Active | Activity (DNA): 2.4% | growth at 10 µM (HL-60(TB) [16]): 8.6% | GI50 (HeLa): > 100 µM | GI50 (HEK293): > 100 µM | growth at 10 µM (NCI-H460 [17]): 13.7% | growth at 10 µM (SF-295 [18]): 4.89% | GI50 (UO-31 [19]): 2.88 µM | TGI (UO-31 [19]): 15.5 µM | CC50 (UO-31 [19]; [28]): > 100 µM | GI50 (K562 [20]): 5.4 µM | growth at 10 µM (SR [21]): -19.9% | GI50 (HaCaT): > 100 µM | GI50 (Jurkat [22]): 0.69 µM | GI50 (SF-295 [23]): 2.71 µM | TGI (SF-295 [23]): 9.79 µM | CC50 (SF-295 [23]; [28]): > 100 µM | GI50 (HL-60(TB) [24]): 2.8 µM | TGI (HL-60(TB) [24]): 11.5 µM | CC50 (HL-60(TB) [24]; [28]): > 100 µM | Activity (Jurkat [25]): 26.7% | GI50 (KB 3-1): 7.4 µM | IC50 [26]: 0.023 µM | GI50 (SK-OV-3): 10 µM | Activity (Jurkat [27]): Active | GI50 (A549): > 100 µM
